From US10195187B2, “Oxybutynin-xanomeline transdermal therapeutic system combinations” (Chase Pharmaceuticals Corporation, priority 2015, dated 2019)

Columns and labels:
muscarinic receptors = conditions: oral and iontophoretic patch administration; cited from earlier work
Male Swiss mice [1] = test: Antagonism of xanomeline-induced diarrhea in mice by oxybutynin (fecal pellet count); format: in vivo, mouse; conditions: oxybutynin i.p. 0.3 to 30 mg/kg, 30 min before xanomeline 30 mg/kg
Protocol: The total number of fecal pellets for each mouse was counted over time. An analysis of variance (ANOVA) was performed on the results. Fisher's Protected Least Significant Difference was used for pairwise comparisons; p values≤0.05 were considered significant. Grubbs' test (http (hypertext transfer protocol) www at graphpad.com/quickcalcs/Grubbs1.cfm) was used to detect outliers for each parameter in each experimental group. […] Mice were placed individually in cages without any bedding materials. During the experiment the number of fecal pellets was counted at different time-points as outlined below:
T0: administration of oxybutinin.
T30 min: administration of vehicle or xanomeline.
T 30 min to T 2.5 h: counting of accumulated fecal pellets excreted.
T+2.5 h to T+4.5 h: counting of accumulated fecal pellets excreted.
The total number of fecal pellets for each mouse was counted over time. An analysis of variance (ANOVA) was performed on the results. Fisher's Protected Least Significant Difference was used for pairwise comparisons. The p value≤0.05 were considered significant. Grubbs' test (http (hypertext transfer protocol) www at graphpad.com/quickcalcs/Gnibbs1.cfm) was used to detect outliers for each parameter in each experimental group.

Male Swiss mice [2] = test: T-maze continuous alternation task (T-CAT) in mice; format: in vivo, mouse
From the text: Evaluation of Cognition with Oxybutynin and Xanomeline in the T-maze Alternation Task in Mice
The T-maze continuous alternation task (T-CAT) is useful as model for studying compounds with cognitive enhancing properties. The T-maze consists of 2 choice arms and 1 start arm mounted to a square center. Manual doors are provided to close specific arms during the force choice alternation task. Male Swiss mice (4-6 weeks old), N=10 per treatment group were used, and were pre-treated with:
Thirty minutes later mice were treated with either vehicle or one of 4 doses of xanomeline:
a dose that caused diarrhea.
Mice were randomly assigned to one of the different experimental treatment groups. Each animal was identified by its group name, cage number, series (day) of experiment, and number (1 to 10) written with permanent ink on the tail.
The T-maze apparatus is made of gray Plexiglas with a main stem (55 cm long×10 cm wide×20 cm high) and two arms (30 cm long×10 cm wide×20 cm high) positioned at 90 degree angle relative to the main stem. A start box (15 cm long×10 cm wide) is separated from the main stem by a guillotine door. Horizontal doors are also provided to close specific arms during the force choice alternation task. The experimental protocol consisted of one single session, which started with 1 “forced-choice” trial, followed by 14 “free-choice” trials. In the first “forced-choice” trial, animals were confined for 5 seconds to the start arm and then were released while either the left or the right goal arm was blocked by the horizontal door. Animals then negotiated the maze, eventually entering the open goal arm, and returned to the start position. […] The percentage of alternation over the 14 free-choice trials was determined for each mouse and was used as an index of working memory performance. […] The drug-induced improvement of memory was calculated by setting the respective response of the saline/vehicle as 100% and that of the test group as 0% reversion. […]

[3] = McCrery and Appell 2006; cited from earlier work
[4] = system: patients with Alzheimer disease; conditions: cited from earlier work
Male Swiss mice [5] = test: Dose-response to xanomeline in a mouse model of diarrhea (fecal pellet count); format: in vivo; conditions: xanomeline i.p. 0.3 to 30 mg/kg
From the text: Study 1—Establishment of the Dose-Response to Xanomeline in a Mouse Model of Diarrhea.
Male Swiss mice (4-6 weeks old), N=10 per treatment group were used, and treated intra-peritoneally (i.p.) with either vehicle (vehicle group) or increasing doses of xanomeline, a representative muscarinic agonist. Mice were randomly assigned to one of two experimental groups (vehicle; or increasing doses of xanomeline). Each animal was identified by its group name, cage number, series (day) of experiment, and number (1 to 10) written with permanent ink on the tail. Mice were placed individually in cages without any bedding materials. During the experiment the number of fecal pellets were counted at different time-points, starting one hour before the time of the administration of the test compound (T0), as outlined below:
T−1 h to T0: counting of the accumulated fecal pellets excreted.
T0: administration of the test compound.
T0 to T+2 h: counting of the accumulated fecal pellets excreted.
T+2 h to T+4 h: counting of the accumulated fecal pellets excreted.
The total number of fecal pellets for each mouse was counted over time. An analysis of variance (ANOVA) was performed on the results. […] During the experiment the number of fecal pellets was counted at different time-points as outlined below: […]

Structure (SMILES): NC(=O)C(c1ccccc1)(c1ccccc1)[C@@H]1CCN(CCc2ccc3c(c2)CCO3)C1 [darifenacin]
- effectiveness relative to other muscarinic antagonists in combination with muscarinic agonists (muscarinic receptors): less effective than the other muscarinic antagonists

Structure (SMILES): CCN(CC)CC#CCOC(=O)C(O)(c1ccccc1)C1CCCCC1 (stereo not shown) [oxybutynin, 4-diethylaminobut-2-ynyl 2-cyclohexyl-2-hydroxy-2-phenylethanoate]
- antagonism of xanomeline-induced diarrhea (fecal pellets) (Male Swiss mice [1]): dose-dependently antagonized the diarrhea induced by xanomeline
- ability to perform the T-maze test after oxybutynin pretreatment (Male Swiss mice [2]; i.p. oxybutynin 30 min before xanomeline): restored the animals' ability to perform the T-maze test
- crossing of the blood brain barrier [3]: able to cross the blood brain barrier

Structure (SMILES): CCCCCCOc1nsnc1C1=CCCN(C)C1 [xanomeline, 3-[4-(Hexyloxy)-1,2,5-thiadiazol-3-yl]-1,2,5,6-tetrahydro-1-methylpyridine]
- cognitive and behavioral symptoms of Alzheimer disease compared to placebo ([4]; 6-month trial, Bodick et al, 1997): significantly improve cognitive and behavioral symptoms of Alzheimer disease
- discontinuation rate ([4]; Alzheimer's patient population, Mirza et al. 2003): higher than 50%
- side effects ([4]; patients with Alzheimer disease, Bodick et al, 1997): dose-dependent unacceptable side effects, including bradycardia, gastro-intestinal distress, excessive salivation, and sweating
- ability to perform the T-maze test at the higher dose (Male Swiss mice [2]; i.p. xanomeline, higher dose (dose that caused diarrhea)): animals were too sick to perform the test
- performance in the T-maze (percentage of alternation) (Male Swiss mice [2]; i.p. xanomeline, mice): dose-dependent increase in performance in the T-maze
- diarrhea (number of fecal pellets excreted) (Male Swiss mice [5]): dose-dependently causes diarrhea
